# Data taken from ChEMBL document CHEMBL1153245, “A profile of the in vitro anti-tumor activity of imidazolium-based ionic liquids” (2010).
# Key:
# Format in all cases: functional
# [1] = test system: ACHN; experiment: Anticancer activity against human ACHN cells assessed cell growth at 10 uM after 48 hrs by sulforhodamine B assay relative to control
# [2] = test system: SF-539; experiment: Anticancer activity against human SF539 cells assessed cell growth at 10 uM after 48 hrs by sulforhodamine B assay relative to control
# [3] = test system: SF-268; experiment: Anticancer activity against human SF268 cells assessed cell growth at 10 uM after 48 hrs by sulforhodamine B assay relative to control
# [4] = test system: HOP-62; experiment: Anticancer activity against human HOP62 cells assessed cell growth at 10 uM after 48 hrs by sulforhodamine B assay relative to control
# [5] = test system: KM12; experiment: Anticancer activity against human KM12 cells assessed cell growth at 10 uM after 48 hrs by sulforhodamine B assay relative to control
# [6] = test system: MCF7; experiment: Anticancer activity against human MCF7 cells assessed cell growth at 10 uM after 48 hrs by sulforhodamine B assay relative to control
# [7] = test system: SK-MEL-2; experiment: Anticancer activity against human SK-MEL-2 cells assessed cell growth at 10 uM after 48 hrs by sulforhodamine B assay relative to control
# [8] = test system: OVCAR-4; experiment: Anticancer activity against human OVCAR4 cells assessed cell growth at 10 uM after 48 hrs by sulforhodamine B assay relative to control
# [9] = test system: OVCAR-5; experiment: Anticancer activity against human OVCAR5 cells assessed cell growth at 10 uM after 48 hrs by sulforhodamine B assay relative to control
# [10] = test system: U-251; experiment: Anticancer activity against human U251 cells assessed cell growth at 10 uM after 48 hrs by sulforhodamine B assay relative to control
# [11] = test system: HCT-116; experiment: Anticancer activity against human HCT116 cells assessed cell growth at 10 uM after 48 hrs by sulforhodamine B assay relative to control
# [12] = test system: SK-MEL-28; experiment: Anticancer activity against human SK-MEL-28 cells assessed cell growth at 10 uM after 48 hrs by sulforhodamine B assay relative to control
# [13] = test system: SW-620; experiment: Anticancer activity against human SW620 cells assessed cell growth at 10 uM after 48 hrs by sulforhodamine B assay relative to control
# [14] = test system: DU-145; experiment: Anticancer activity against human DU145 cells assessed cell growth at 10 uM after 48 hrs by sulforhodamine B assay relative to control
# [15] = test system: HCT-15; experiment: Anticancer activity against human HCT15 cells assessed cell growth at 10 uM after 48 hrs by sulforhodamine B assay relative to control
# [16] = test system: T47D; experiment: Anticancer activity against human T47D cells assessed cell growth at 10 uM after 48 hrs by sulforhodamine B assay relative to control
# [17] = test system: HOP-92; experiment: Anticancer activity against human HOP92 cells assessed cell growth at 10 uM after 48 hrs by sulforhodamine B assay relative to control
# [18] = test system: PC-3; experiment: Anticancer activity against human PC3 cells assessed cell growth at 10 uM after 48 hrs by sulforhodamine B assay relative to control
# [19] = test system: NCI-H522; experiment: Anticancer activity against human NCI-H522 cells assessed cell growth at 10 uM after 48 hrs by sulforhodamine B assay relative to control
# [20] = test system: NCI-H460; experiment: Anticancer activity against human NCI-H460 cells assessed cell growth at 10 uM after 48 hrs by sulforhodamine B assay relative to control
# [21] = test system: TK-10; experiment: Anticancer activity against human TK10 cells assessed cell growth at 10 uM after 48 hrs by sulforhodamine B assay relative to control
# [22] = test system: OVCAR-8; experiment: Anticancer activity against human OVCAR8 cells assessed cell growth at 10 uM after 48 hrs by sulforhodamine B assay relative to control
# [23] = test system: LOX IMVI; experiment: Anticancer activity against human LOXIMVI cells assessed cell growth at 10 uM after 48 hrs by sulforhodamine B assay relative to control
# [24] = test system: NCI-H322M; experiment: Anticancer activity against human NCI-H322M cells assessed cell growth at 10 uM after 48 hrs by sulforhodamine B assay relative to control
# [25] = test system: SF-295; experiment: Anticancer activity against human SF295 cells assessed cell growth at 10 uM after 48 hrs by sulforhodamine B assay relative to control
# [26] = test system: SNB-75; experiment: Anticancer activity against human SNB75 cells assessed cell growth at 10 uM after 48 hrs by sulforhodamine B assay relative to control
# [27] = test system: IGROV-1; experiment: Anticancer activity against human IGROV1 cells assessed cell growth at 10 uM after 48 hrs by sulforhodamine B assay relative to control
# [28] = test system: CAKI-1; experiment: Anticancer activity against human Caki1 cells assessed cell growth at 10 uM after 48 hrs by sulforhodamine B assay relative to control
# [29] = test system: UACC-257; experiment: Anticancer activity against human UACC257 cells assessed cell growth at 10 uM after 48 hrs by sulforhodamine B assay relative to control
# [30] = test system: UO-31; experiment: Anticancer activity against human UO31 cells assessed cell growth at 10 uM after 48 hrs by sulforhodamine B assay relative to control
# [31] = test system: MDA-MB-435; experiment: Anticancer activity against human MDA-MB-435 cells assessed cell growth at 10 uM after 48 hrs by sulforhodamine B assay relative to control
# [32] = test system: SNB-19; experiment: Anticancer activity against human SNB19 cells assessed cell growth at 10 uM after 48 hrs by sulforhodamine B assay relative to control
# [33] = test system: MDA-MB-231; experiment: Anticancer activity against human MDA-MB-231 cells assessed cell growth at 10 uM after 48 hrs by sulforhodamine B assay relative to control
# [34] = test system: HL-60(TB); experiment: Anticancer activity against human HL-60(TB) cells assessed cell growth at 10 uM after 48 hrs by sulforhodamine B assay relative to control
# [35] = Anticancer activity against human RPMI8266 cells assessed cell growth at 10 uM after 48 hrs by sulforhodamine B assay relative to control
# [36] = test system: RXF 393; experiment: Anticancer activity against human RXF393 cells assessed cell growth at 10 uM after 48 hrs by sulforhodamine B assay relative to control
# [37] = test system: NCI-H23; experiment: Anticancer activity against human NCI-H23 cells assessed cell growth at 10 uM after 48 hrs by sulforhodamine B assay relative to control
# [38] = test system: BT-549; experiment: Anticancer activity against human BT549 cells assessed cell growth at 10 uM after 48 hrs by sulforhodamine B assay relative to control
# [39] = test system: Malme-3M; experiment: Anticancer activity against human MALME-3M cells assessed cell growth at 10 uM after 48 hrs by sulforhodamine B assay relative to control
# [40] = test system: SK-OV-3; experiment: Anticancer activity against human SKOV3 cells assessed cell growth at 10 uM after 48 hrs by sulforhodamine B assay relative to control
# [41] = test system: SN12C; experiment: Anticancer activity against human SN12C cells assessed cell growth at 10 uM after 48 hrs by sulforhodamine B assay relative to control
# [42] = test system: MDA-MB-468; experiment: Anticancer activity against human MDA-MB-468 cells assessed cell growth at 10 uM after 48 hrs by sulforhodamine B assay relative to control
# [43] = test system: CCRF-CEM; experiment: Anticancer activity against human CCRF-CEM cells assessed cell growth at 10 uM after 48 hrs by sulforhodamine B assay relative to control
structure (smiles),measurement,setting,value
CCCCCCCCCCCCCCCCCC[n+]1ccn(C)c1.[Cl-],Activity,[1],-12.35%
same,Activity,[2],-85.24%
same,Activity,[3],-45.4%
same,Activity,[4],-58.64%
same,Activity,[5],-47.8%
same,Activity,[6],-33.81%
same,Activity,[7],-61.28%
same,Activity,[8],-19.32%
same,Activity,[9],-61.54%
same,Activity,[10],-0.67%
same,Activity,[11],-18.25%
same,Activity,[12],-49.38%
same,Activity,[13],-45.24%
same,Activity,[14],-7.74%
same,Activity,[15],3.3%
same,Activity,[16],35.89%
same,Activity,[17],-51.3%
same,Activity,[18],-54.01%
same,Activity,[19],-74.88%
same,Activity,[20],-62.94%
same,Activity,[21],-70.24%
same,Activity,[22],-20.19%
same,Activity,[23],0.13%
same,Activity,[24],5.3%
same,Activity,[25],-10.43%
same,Activity,[26],-74.36%
same,Activity,[27],-43.92%
same,Activity,[28],-67.34%
same,Activity,[29],-38%
same,Activity,[30],-61.43%
same,Activity,[31],-56.4%
same,Activity,[32],-47.53%
same,Activity,[33],-66.25%
same,Activity,[34],3.76%
same,Activity,[35],93.78%
same,Activity,[36],-28.27%
same,Activity,[37],-48.94%
same,Activity,[38],-55.64%
same,Activity,[39],-62.43%
same,Activity,[40],4.83%
same,Activity,[41],-52.54%
same,Activity,[42],-42.33%
same,Activity,[43],34.04%
CCCCCCCCCCCCCCCCCC[n+]1ccn(C)c1.F[P-](F)(F)(F)(F)F,Activity,[1],5.45%
same,Activity,[2],-80.04%
same,Activity,[3],-48.33%
same,Activity,[4],-56%
same,Activity,[5],-60.81%
same,Activity,[6],1.35%
same,Activity,[7],-42.48%
same,Activity,[8],-10.51%
same,Activity,[9],-60.74%
same,Activity,[10],-22.42%
same,Activity,[11],-27.74%
same,Activity,[12],-57.59%
same,Activity,[13],-48.51%
same,Activity,[14],-12.17%
same,Activity,[15],9.24%
same,Activity,[16],13.4%
same,Activity,[17],-47.8%
same,Activity,[18],-62.83%
same,Activity,[19],-53.86%
same,Activity,[20],-67.11%
same,Activity,[21],-59.16%
same,Activity,[22],-34.11%
same,Activity,[23],-13.99%
same,Activity,[24],11.62%
same,Activity,[25],-28.21%
same,Activity,[26],-68.15%
same,Activity,[27],-12.15%
same,Activity,[28],-80.74%
same,Activity,[29],-62.12%
same,Activity,[30],-29.46%
same,Activity,[31],-71.22%
same,Activity,[32],-67.18%
same,Activity,[33],-32.88%
same,Activity,[34],2.58%
same,Activity,[35],19.57%
same,Activity,[36],-52.84%
same,Activity,[37],-49.37%
same,Activity,[38],-23.5%
same,Activity,[39],-46.96%
same,Activity,[40],-6.01%
same,Activity,[41],-24.52%
same,Activity,[42],-23.16%
same,Activity,[43],13.72%
CCCCCCCCCCCC[n+]1ccn(C)c1.F[B-](F)(F)F,Activity,[1],54.07%
same,Activity,[2],35.07%
same,Activity,[3],66.79%
same,Activity,[4],28.7%
same,Activity,[5],21.76%
same,Activity,[6],-1.79%
same,Activity,[7],18.52%
same,Activity,[8],12.68%
same,Activity,[9],48.72%
same,Activity,[10],36.74%
same,Activity,[11],16.24%
same,Activity,[12],62.65%
same,Activity,[13],54.63%
same,Activity,[14],7.97%
same,Activity,[15],82.38%
same,Activity,[16],11.08%
same,Activity,[17],46.45%
same,Activity,[18],74.38%
same,Activity,[19],-10.37%
same,Activity,[20],23.03%
same,Activity,[21],24.24%
same,Activity,[22],13.12%
same,Activity,[23],35.51%
same,Activity,[24],67.4%
same,Activity,[25],34.1%
same,Activity,[26],3.39%
same,Activity,[27],1.02%
same,Activity,[28],30.59%
same,Activity,[29],-7.74%
same,Activity,[30],68.16%
same,Activity,[31],20.42%
same,Activity,[32],39.2%
same,Activity,[33],26.48%
same,Activity,[34],50.79%
same,Activity,[35],130.35%
same,Activity,[36],22.19%
same,Activity,[37],23.04%
same,Activity,[38],1.51%
same,Activity,[39],31.87%
same,Activity,[40],47.29%
same,Activity,[41],21.24%
same,Activity,[42],-43.37%
same,Activity,[43],96%
CCCCCCCCCCCCCCCC[n+]1ccn(C)c1.[Cl-],Activity,[1],-0.6%
same,Activity,[2],-98.59%
same,Activity,[3],-22.98%
same,Activity,[4],-82.71%
same,Activity,[5],-83.88%
same,Activity,[6],-79.92%
same,Activity,[7],-64.47%
same,Activity,[8],-54.83%
same,Activity,[9],-67.51%
same,Activity,[10],-69.96%
same,Activity,[11],-87.23%
same,Activity,[12],-86.22%
same,Activity,[13],-66.67%
same,Activity,[14],-69.69%
same,Activity,[15],9.85%
same,Activity,[16],-0.13%
same,Activity,[17],-80.2%
same,Activity,[18],-100%
same,Activity,[19],-87.38%
same,Activity,[20],-87.94%
same,Activity,[21],-80.37%
same,Activity,[22],-53.71%
same,Activity,[23],-50.37%
same,Activity,[24],8.28%
same,Activity,[25],-39.48%
same,Activity,[26],-98.62%
same,Activity,[27],-67.13%
same,Activity,[28],-83.54%
same,Activity,[29],-61.13%
same,Activity,[30],-85.85%
same,Activity,[31],-55.77%
same,Activity,[32],-75.88%
same,Activity,[33],-93.87%
same,Activity,[34],45.73%
same,Activity,[35],15.77%
same,Activity,[36],-66.19%
same,Activity,[37],-51.9%
same,Activity,[38],-65.21%
same,Activity,[39],-77.38%
same,Activity,[40],-33.78%
same,Activity,[41],-94.61%
same,Activity,[42],-78.99%
same,Activity,[43],33.57%
